Results as given in publication PMC6168621 (Frontiers in Pharmacology, 2018).
Entries after “also recorded” stand apart in the source; their conditions may differ. Like-named read-outs stand apart in the source and are kept apart here. Marks after values point to notes of the source that are not given here.

What was measured:
[1] = LC-MS/MS analysis of forensic clinical samples (urine, serum); assay type: in vivo; conditions: human forensic clinical sample; for Concentration in serum: Patient 002, serum (text: blood); for Concentration in urine: Patient 002, urine
Excerpt: For human studies, ToxBox® analytical test kits were provided by PinPoint Testing, LLC (Little Rock, AR, United States) to streamline sample preparation and testing procedures for SCBs, confounding drugs of abuse and other non-specified NPSs. ToxBox® contained NIST-traceable, certified reference material for all standards and isotopically-labeled internal standards along with ISOLUTE® SLE+ 96-well plates manufactured by Biotage (Charlotte, NC, United States). This newly developed kit identifies not only novel SCBs and associated metabolites, but also over 200 drugs and other NPSs that often confound such analytical tests. Optima-grade formic acid, acetonitrile, and methanol were purchased from Fisher Scientific (Fair Lawn, NJ, United States). Deionized water was purified to 18.2 MΩ⋅cm resistivity using the equivalent of a Millipore laboratory water purification system. All other chemicals and supplies were provided by Cerilliant (Round Rock, TX, United States), Cayman Chemical Company (Ann Arbor, Michigan, United States), Lipomed (Cambridge, MA), Biotage (Charlotte, NC, United States) or HemoStat Laboratories (Dixon, CA, United States). Blank defibrinated sheep blood or blank human blood void of drug contamination was used for all studies.
Supported liquid extraction (SLE) procedures were optimized for 96-wellplate processing on a PerkinElmer Zephyr G3 SPE Workstation (Waltham, MA, United States). Sample extracts were analyzed using an Agilent 1260 quaternary liquid chromatography system (Santa Clara, CA, United States) coupled to an Agilent 6420 tandem mass spectrometer (LC-MS/MS). Instrument control and data acquisition relied on MassHunter LC/MS Data Acquisition (VER B.08.00). Data analysis was performed using MassHunter Quantitative Analysis (VER B.07.01 SP2).
Use of this material was approved by the Institutional Review Board of the University of Arkansas for Medical Sciences (Little Rock, AR, United States) (IRB #217584).
All blood calibration standards, QC material, and unknown samples were processed identically by mixing 0.25 ml of blank blood or unknown specimen in appropriate wells at 900 rpm for 15 min, pretreating with 0.25 mL of 0.5 M ammonium hydroxide, and then mixing for another 15 min at 900 rpm. Samples were then loaded, under gentle vacuum or positive pressure, onto a 400 mg ISOLUTE® SLE+ 96-wellplate. Samples were allowed to equilibrate for 5 min before extracting under gravity with two fractions of 900 μL of ethyl acetate. All sample extracts were evaporated to dryness under a gentle flow of nitrogen and reconstituted in 100% methanol (100 μl).
Analytical procedures used 5 μl injections on a 2.6 μm Phenomenex Kinetex Phenyl Hexyl (50 × 4.6 mm) LC column heated to 35°C. Analytes were resolved at 0.5 mL/min using mobile phase A (10 mM ammonium formate in ultrapure 18.2 MΩ⋅cm water) and mobile phase B (0.1% formic acid in methanol). Analytes are resolved using a gradient starting at 95% aqueous (Mobile Phase A) and ramping to 0% aqueous over 4 min, and holding constant for 1 min. The gradient returned to initial conditions over 0.1 min and equilibrated for an additional 1.9 min. The total run time including column equilibration period between injections was 7.0 min. Specific mass spectrometer and analyte parameters are provided in Supplementary Tables S2, S3.

CD1 mice = assay: Cannabinoid-elicited hypothermia (rectal temperature); assay type: in vivo; conditions: for Lowest rectal temperature, hypothermic effect vs vehicle / Lowest rectal temperature, drug alone vs rimonabant pretreatment: P < 0.05; for Lowest rectal temperature, drug alone vs rimonabant pretreatment: rimonabant 10.0 mg/kg 60 min before
Protocol: For in vivo studies, rimonabant was synthesized in the laboratory of Dr. Thomas E. Prisinzano at the University of Kansas School of Pharmacy (Lawrence, KS, United States), and provided to us as a generous gift. AB-PINACA, and its 4OH metabolite were obtained from Cayman Chemical Company (Ann Arbor, MI, United States). All cannabinoids were dissolved in a vehicle consisting of ethanol, emulphor and saline at a ratio of 1:1:18. Injections were administered via the intraperitoneal (IP) route at a constant volume of […]. Rimonabant was administered at a dose of 10 mg/kg, 60 min before injection of AB-PINACA or its 4OH metabolite.
Adult male CD1 mice (Charles River Laboratory, Wilmington, MA, United States) were housed three subjects per cage (15.2 cm × 25.4 cm × 12.7 cm) in a temperature-controlled room in a vivarium accredited by the Association for Assessment and Accreditation of Laboratory Animal Care, and given ad libitum food (Laboratory Rodent Diet no. 5001; PMI Feeds, St. Louis, MO, United States) and water. The vivarium was maintained at 22°C ± 2°C and 45–50% humidity, with lights set to a 12-h light/dark cycle (lights on at 6:00 AM, CST). […] All procedures were carried out in accordance with the Guide for Care and Use of Laboratory Animals as adopted and promulgated by the National Institutes of Health (NIH). The experimental protocol has been approved by the Institutional Animal Care and Use Committee (IACUC) at the University of Arkansas for Medical Sciences (UAMS).
Mice were habituated to handling and weighing prior to initiation of experimental procedures. A digital thermometer (model BAT-12, PhysiTemp, Clifton, NJ, United States) equipped with a Ret-3 mouse probe (model 50314, Stoelting Co., Dale, IL, United States) was lubricated and inserted approximately 2 cm into the rectum. Stable temperatures were obtained within ∼6 s. Rectal temperature data were sampled immediately before injection, and at 10, 30, 60, 120, 240, and 360 min after injection.
Curve-fitting was conducted utilizing GraphPad Prism® v6.0b (GraphPad Software, Inc.; San Diego, CA, United States). Non-linear regression for one-site competition was used to determine the IC50 for competition receptor binding. The Cheng-Prusoff equation ([Cheng and Prusoff, 1973]) was employed to convert the experimental IC50 values obtained from competition receptor binding experiments to Ki values (a quantitative measure of receptor affinity). Curve fitting of concentration-effect curves via non-linear regression was also employed to determine the […] or IC50 (measures of potency) and Emax or Imax (measures of efficacy) for the [^35S]GTPγS and adenylyl cyclase experiments, respectively. All dissociation constants and measurements of potency were converted to pKi, pEC50, or pIC50 values by taking the negative log of each value so that parametric tests could be used for statistical comparisons. A one-way ANOVA, followed by Tukey’s Multiple Comparison post hoc test, was used to determine statistical significance (P < 0.05). For animal studies, temperature data are shown as mean values (±SEM) for groups of subjects at each drug dose and time point. For statistical analyses, only the highest dose of AB-PINACA or its 4OH- metabolite (with and without rimonabant pretreatment) were considered. The lowest temperatures recorded for each subject within each group (regardless of when after drug administration it occurred) were compared to vehicle data using a one-way ANOVA and Tukey’s HSD post hoc test. Significance was judged at P < 0.05.

[2] = test system: human liver microsomes (HLMs); assay: Glucuronidation of AB-PINACA and JWH-018 metabolites in HLMs; assay type: in vitro ADME; conditions: 90 min; for Glucuronide formation (UPLC peak): 50 μM substrate, HLMs with UDPGA, 37°C
Protocol: A typical incubation mixture (30 μl of total volume) contained 100 mM Tris-HCl (pH 7.4), 5 mM MgCl2, 3 mM UDPGA, 80 μg/ml alamethicin, 50 μg HLMs, 5 mM saccharolactone, and 50 μM 4OH- or 5OH-AB-PINACA. […] After incubation at 37°C for 90 min, reactions were terminated by the addition of 30 μl cold ethanol. Following removal of the protein by centrifugation at 12,000 × g for 10 min, a 5-μl portion of the sample was subjected to UPLC. All incubations were performed in triplicate.
Parent compounds and glucuronidated metabolites were identified by the ACQUITY UPLC System with a UV detector (Milford, MA, United States). […] The column was re-equilibrated at initial conditions for 2.5 min between runs. The elution was monitored at 300 nm. The retention times of 4OH-AB-PINACA, 5OH-AB-PINACA, 4OH-AB-PINACA glucuronide, and JWH-018-M2 were 3.989, 3.994, 3.646, and 5.391 min.
FIGURE 4 Glucuronidation of 4OH- and 5OH-AB-PINACA in human liver microsomes (HLMs). 4OH-AB-PINACA (A) and 5OH-AB-PINACA (B) were incubated for 90 min with HLMs in the presence or absence of UDPGA. The terminated reaction mixtures were subjected to the UPLC analysis and the eluent was monitor with a UV detector at 300 nm and chromatograms presented. (C) The peak area of the glucuronide was estimated from the triplicate determinations. The data are presented as mean value ± SD. ND, not detected. (D) Comparison of glucuronidation of JWH-018-M2 and 4OH-AB-PINACA with HLMs. JWH-018-M2 and 4OH-AB-PINACA (5 μM) were incubated for 90 min with HLMs in the presence or absence of UDPGA. The terminated reaction mixtures were subjected to the UPLC analysis and the eluent was monitor with a UV detector at 300 nm. The remaining amount of the substrates was quantified by using standard curves of JWH-018-M2 and 4OH-AB-PINACA. The data was shown as mean value ± SD. ^∗P < 0.001. TEXT PRINTED IN THE PICTURE: (C) 5OH-AB-PINACA: Peak area (μV*sec): ND

hCB1Rs [3] = biological target: T1, hCB1Rs (Homo sapiens, UniProt P21554); assay: biochemical; assay type: binding; conditions: for Ki: [^3H]CP-55,940 binding, CHO-hCB1 membranes
T1 construct: host or cells: CHO-K1 (CHO-hCB1)
T1 sequence (P21554 whole entry): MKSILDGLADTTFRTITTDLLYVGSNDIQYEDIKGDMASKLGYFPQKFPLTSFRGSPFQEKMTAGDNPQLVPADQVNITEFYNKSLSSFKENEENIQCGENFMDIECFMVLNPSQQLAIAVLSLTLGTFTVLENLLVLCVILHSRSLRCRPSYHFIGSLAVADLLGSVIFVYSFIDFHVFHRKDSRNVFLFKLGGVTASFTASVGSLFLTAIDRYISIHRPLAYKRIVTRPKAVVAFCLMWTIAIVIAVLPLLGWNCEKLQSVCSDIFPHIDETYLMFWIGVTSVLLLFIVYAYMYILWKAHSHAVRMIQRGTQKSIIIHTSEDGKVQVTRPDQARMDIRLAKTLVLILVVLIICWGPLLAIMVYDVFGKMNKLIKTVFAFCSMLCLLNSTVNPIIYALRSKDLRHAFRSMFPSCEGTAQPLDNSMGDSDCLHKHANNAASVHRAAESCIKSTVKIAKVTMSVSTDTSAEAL

hCB1Rs [4] = biological target: T1, hCB1Rs; assay: cell-based; assay type: cell-based; conditions: intact CHO-hCB1 cells, 10 μM forskolin, 15 min
hCB1Rs [5] = biological target: T1, hCB1Rs; assay: biochemical; conditions: CHO-hCB1 membranes; for Emax: read-out: EMAX, [^35S]GTPγS binding (maximal G-protein activation)
[6] = Ki, 0.2 nM [^3H]CP-55,940, Cheng-Prusoff
[7] = pKi, 0.2 nM [^3H]CP-55,940, mean ± SEM
[8] = read-out: IC50, cAMP accumulation (adenylyl cyclase inhibition)
[9] = read-out: pIC50, cAMP accumulation (converted)
[10] = mean ± SEM, read-out: pEC50, [^35S]GTPγS binding (converted)
[11] = read-out: EC50, [^35S]GTPγS binding

In the case of `CC(C)(C)[C@H](NC(=O)c1nn(CC2CCCCC2)c2ccccc12)C(N)=O`, the Concentration in serum [1] is reported as 11.3 ng/mL.

For `CC(O)CCCn1nc(C(=O)NC(C(N)=O)C(C)C)c2ccccc21` (stereo not drawn) [4OH-AB-PINACA], the “Lowest rectal temperature, hypothermic effect vs vehicle” value (CD1 mice; 100.0 mg/kg i.p.) was “significantly different”, the “Lowest rectal temperature, drug alone vs rimonabant pretreatment” value (CD1 mice; 100.0 mg/kg i.p.) was “significantly different” and the “Dose required for a similar level of hypothermia relative to AB-PINACA” value (CD1 mice; 100 mg/kg vs 10 mg/kg) was roughly 10 fold. For the same compound, the “Effect on rectal temperature” value (CD1 mice; 30.0 and 100.0 mg/kg, i.p.) was “dose- and time-dependent hypothermic effects”, the “Remaining amount of substrate in the presence vs absence of UDPGA” value ([2]; 5 μM substrate, HLMs, Figure 4D) was “such disappearance of substrate is not observed” and the “Glucuronide formation (UPLC peak)” value [2] was “unique peak is observed; also recorded: slightly glucuronidated”. For the same compound, the “hCB1R affinity relative to the parent compound AB-PINACA (fold less)” value (hCB1Rs [3]; 159 nM vs 4 nM) was “approximately 40 fold”, the Ki (hCB1Rs [3]; [6]) was 159 nM and the Ki (hCB1Rs [3]; [7]) was 151 nM. The “IMAX, cAMP accumulation (maximal adenylyl cyclase inhibition)” value (hCB1Rs [4]) was 87.0 ± 2.9^a %, the IC50 (hCB1Rs [4]; [8]) was 141 nM and the IC50 (hCB1Rs [4]; [9]) was 129 nM. The Emax (hCB1Rs [5]; mean ± SEM) was 92.6 ± 13.4%, the EC50 (hCB1Rs [5]; [10]) was 813 nM and the EC50 (hCB1Rs [5]; [11]) was 952 nM.

With `CC(C)C(NC(=O)c1nn(CCCCCO)c2ccccc12)C(N)=O` (stereo not drawn) [5OH-AB-PINACA] the “Glucuronide formation (UPLC peak)” value [2] was “no such peak is observed; also recorded: glucuronidation is not involved in the clearance”, the Ki (hCB1Rs [3]; [6]) was 452 nM and the Ki (hCB1Rs [3]; [7]) was 447 nM. It also gave an Emax (hCB1Rs [5]; mean ± SEM) of 100 ± 16.8%, an EC50 (hCB1Rs [5]; [10]) of 2820 nM and an EC50 (hCB1Rs [5]; [11]) of 2740 nM.

Compound `CC(C)[C@H](NC(=O)c1nn(Cc2ccc(F)cc2)c2ccccc12)C(N)=O` [AB-FUBINACA] has a Concentration in urine [1] of 1.1 ng/mL.

In the case of `CCCCCn1nc(C(=O)N[C@H](C(N)=O)C(C)C)c2ccccc21` [AB-PINACA, (S)-N1(1-amino-3-methyl-1-oxobutan-2-yl)-1-pentyl-1H-indazole-3-carbox-amide], the “Lowest rectal temperature, hypothermic effect vs vehicle” value (CD1 mice; 10.0 mg/kg i.p.) is reported as “significantly different”, the “Lowest rectal temperature, drug alone vs rimonabant pretreatment” value (CD1 mice; 10.0 mg/kg i.p.) is reported as “significantly different” and the “Effect on rectal temperature” value (CD1 mice; 3.0 and 10.0 mg/kg, i.p.) is reported as “dose- and time-dependent hypothermic effects”. The “Effect on rectal temperature” value (CD1 mice; lowest tested dose (1.0 mg/kg), i.p.) was “prevents the typical injection-elicited increase in rectal temperature”, the Concentration in serum [1] was 1.2 ng/mL and the Concentration in urine [1] was 0.9 ng/mL. For the same compound, the Ki (hCB1Rs [3]; [6]) was 4 nM, the Ki (hCB1Rs [3]; [7]) was 1.78 nM and the “IMAX, cAMP accumulation (maximal adenylyl cyclase inhibition)” value (hCB1Rs [4]) was 72.0 ± 2.1^b %. It also gave an IC50 (hCB1Rs [4]; [8]) of 3.9 nM, an IC50 (hCB1Rs [4]; [9]) of 2.24 nM and an Emax (hCB1Rs [5]; mean ± SEM) of 71.9 ± 5.8%. For the same compound, the EC50 (hCB1Rs [5]; [10]) was 8.71 nM and the EC50 (hCB1Rs [5]; [11]) was 12.8 nM.

For `Cc1c(C(=O)NN2CCCCC2)nn(-c2ccc(Cl)cc2Cl)c1-c1ccc(Cl)cc1` [Rimonabant, reference compound], the “Effect on rectal temperature” value (CD1 mice; 10 mg/kg, alone) was “does not alter rectal temperature”.

For `C=C(C)C(C)(C)CC(=O)c1cn(CCCCC(=O)O)c2ccccc12` [UR-144-pentanoic acid degradant], the Concentration in serum [1] was 5.4 ng/mL.
